Reference: paper PMC10689823, “Discovery of a Drug-like, Natural Product-Inspired DCAF11 Ligand Chemotype” (Nature Communications, 2023)
Values joined by “and” are separate entries in the source; they are usually repeats but may differ in a detail not shown here. Equal values may be shown once.

Key:
Type in all cases: cell-based
[1] = Cell viability assay (CellTiter-Glo) in Jurkat cells; conditions: human, Jurkat cells; for viability at 72 h, 10 nmol/L: concentration 10 nmol/L; for viability at 72 h, 100 nmol/L: concentration 100 nmol/L; for viability at 72 h, 300 nmol/L: concentration 300 nmol/L; for viability at 72 h, 1000 nmol/L: concentration 1000 nmol/L; for viability at 72 h, 3000 nmol/L: concentration 3000 nmol/L; for viability at 72 h, 10000 nmol/L: concentration 10000 nmol/L; for viability at 72 h, 0.01 µM: 10 nM; for viability at 72 h, 0.1 µM: 100 nM; for viability at 72 h, 1 µM: 1000 nM; for viability at 72 h, 3 µM: 3000 nM
Procedure: (§1) Jurkat cells (3 × 10^3) and Hep G2 cells (3.5 × 10^3) were seeded in 96-well plates in 100 μL culture medium. Cells were treated with compounds dissolved in 50 μl medium at the indicated concentration for 72 h, at the same time, one plate of cells without compounds treatment was used for the cell count at time zero. After adding 40 μl of CellTiter-Glo® reagent (Promega, G7571) to each well for 10 min at room temperature, the luminescence was measured on a Spark® Multimode Microplate Reader (Tecan). The data was analyzed by the GraphPad Prism 9.0.

[2] = system: Jurkat cells; assay: as above; conditions: for GI50: Homo sapiens; for GI50 / Relative cell viability (%): Jurkat cells, 72 h; for Relative cell viability (%): Fig. 4k; for Cell viability (%) relative to DMSO: individual replicates, Supplementary Fig. 7g
Procedure: as §1

[3] = biological target: BRD2 (Homo sapiens, UniProt P25440); assay: BRD2 levels by Western blot in KBM7 cells (WT, DCAF11 knockout, DDB1 knockout); parameters: endogenous in cells; host or cells: KBM7 (WT, DCAF11 KO, DDB1 KO); conditions: 4 h
BRD2 (Homo sapiens, UniProt P25440), sequence (P25440 whole entry): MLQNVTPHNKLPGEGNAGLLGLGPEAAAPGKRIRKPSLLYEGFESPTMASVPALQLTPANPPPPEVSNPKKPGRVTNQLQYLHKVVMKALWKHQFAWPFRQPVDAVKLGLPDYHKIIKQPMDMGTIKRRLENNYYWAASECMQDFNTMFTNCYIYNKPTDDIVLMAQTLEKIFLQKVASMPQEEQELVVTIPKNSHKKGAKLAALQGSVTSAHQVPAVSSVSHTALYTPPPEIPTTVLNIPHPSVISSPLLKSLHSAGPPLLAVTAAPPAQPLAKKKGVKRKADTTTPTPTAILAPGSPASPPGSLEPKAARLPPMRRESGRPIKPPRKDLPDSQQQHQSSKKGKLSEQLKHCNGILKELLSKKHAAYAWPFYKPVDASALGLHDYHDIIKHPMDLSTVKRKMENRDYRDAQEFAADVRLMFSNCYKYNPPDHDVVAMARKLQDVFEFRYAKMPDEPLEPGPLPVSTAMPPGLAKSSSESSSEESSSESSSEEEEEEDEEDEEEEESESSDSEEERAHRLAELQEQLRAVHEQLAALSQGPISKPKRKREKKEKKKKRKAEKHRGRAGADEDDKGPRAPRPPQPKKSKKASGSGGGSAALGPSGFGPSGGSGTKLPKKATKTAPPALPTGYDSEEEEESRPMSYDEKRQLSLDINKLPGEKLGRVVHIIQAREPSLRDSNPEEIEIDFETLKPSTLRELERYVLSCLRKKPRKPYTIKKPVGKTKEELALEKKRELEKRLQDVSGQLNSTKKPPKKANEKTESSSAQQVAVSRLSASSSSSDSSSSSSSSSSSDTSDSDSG
Procedure: Cells were washed with PBS and lysed in lysis buffer (50 mM Tris-HCl, pH 7.4, 150 mM NaCl, 1% Triton X-100, 1% sodium deoxycholate, 0.1% SDS) with complete protease inhibitor cocktail (Roche, 11836170001) for 30 min on ice. For Ramos cells, cell pellets were lysed in lysis buffer (50 mM Tris-HCl, pH 8, 150 mM NaCl, 1% NP-40, 0.5% sodium deoxycholate) with complete protease inhibitor cocktail. After centrifugation at 16,000 x g, the supernatant was transferred into a new tube and the protein concentration was determined by DC protein assay (BIO-RAD, 5000116). Proteins were separated by SDS-PAGE and transferred to a PVDF membrane (Thermo scientific, 0.45 μm, 88518). For PDEδ, BRD2, GAPDH, BRD4, Vinculin and BTK, the membranes were blocked with Intercept® Blocking Buffer (LI-COR Biosciences, 927-70001) at room temperature for 1 h. The primary antibodies for these proteins were diluted with Intercept® Blocking Buffer (1:500 for PDEδ, 1:3000 for Vinculin, and 1:1000 for other proteins) and incubated with the membranes overnight at 4 °C. Membranes were washed with PBS + 0.1% Tween 20 (PBS-T) five times and incubated with secondary antibodies conjugated to IRDye® Infrared Fluorescent Dyes (1:5000, LI-COR Biosciences) at room temperature for 1 h with protection from light. After washing the membrane, signals were visualized using the ChemiDoc MP Imaging System (BIO-RAD Laboratories). For detection of LC3B, BRD3, BLK, DCAF11, DDB1 RBX1, FIP200, V5- and FLAG-Tag the membranes were blocked with 5% milk in PBS-T at room temperature for 1 h. The primary antibodies for these proteins were diluted in 5% milk in PBS-T buffer (1:200 for BRD3, 1:1000 for other proteins) and incubated with the membranes overnight at 4 °C. Membranes were washed with PBS-T five times and incubated with HRP secondary antibodies (1:1500) at room temperature for 1 h. After washing the membrane, protein detection was performed using Western blotting detection reagent (Thermo Scientific, 34095) and the ChemiDoc MP Imaging System (BIO-RAD). Relative band intensities were quantified using Image Lab (BIO-RAD).
DCAF11- or FIP200 (RB1CC1)-targeting sgRNAs were lentivirally packaged using PEI transfection of Lenti-X cells. The viral supernatant was harvested after 72 h, cleared of cellular debris by filtration through a 0.45-µm PES filter and stored in aliquots at −80 °C. The appropriate amount of viral supernatant was transduced into KBM7 cells (1 × 10^6 cells/mL) via spinfection (2000 rpm, 1 h, 37 °C) with polybrene (8 µg/mL). Two days post transduction, the cells were selected with puromycin (1 µg/mL) for a total of 5 days, after which the knockout pools were validated via western blotting.

[4] = system: BRD2; assay: In-Cell Western for BRD2 levels in Hep G2 cells; conditions: Hep G2 cells; 4 h
Procedure: Hep G2 cells were seeded in 96-well plates and incubated for 24 h. Compounds were added for the indicated time at the indicated concentration. Cells were then washed once with PBS and fixed with 4% paraformaldehyde for 30 min at room temperature. The fixed cells were permeabilized with 0.5 % Triton-X100 for 15 min followed by block with Intercept® Blocking Buffer (LI-COR Biosciences, 927-70001) for 1 h at room temperature. Primary antibodies for BRD2 (1:800) and Vinculin (1:2000) were diluted with LI-COR buffer and incubated with the cells at 4 °C overnight. Cells were washed with PBS-T, and the secondary antibodies conjugated to IRDye (1:1000, LI-COR Biosciences) were added to the cells for 1 h at room temperature. After washing the cells, the signal was recorded with the Odyssey® CLx Infrared Imaging System (LI-COR Biosciences) and the protein levels were analyzed by Image Studio (LI-COR Biosciences). BRD2 protein levels were normalized to the levels of reference protein vinculin.

[5] = system: caspase-3/7 activity; assay: Caspase-3/7 Activity Assay in Jurkat cells; conditions: 18 h, Fig. 4l
Procedure: Jurkat cells (3 × 10^3) were seeded in 96-well plates in 25 μl culture medium. Cells were treated with compounds dissolved in 25 μl medium at the indicated concentration for 18 h. After adding 50 μl of Caspase-Glo® 3/7 Reagent (Promega, G8091) to each well for 30 min at room temperature, the luminescence was measured on a Spark® Multimode Microplate Reader (Tecan). The data was analyzed by the GraphPad Prism 9.0.

[6] = individual replicates, Supplementary Fig. 7g, read-out: Cell viability (%) relative to DMSO
[7] = 72 h, Fig. 4k, read-out: Relative cell viability (%)

Work on Cc1sc2c(c1C)C(c1ccc(Cl)cc1)=NC(CC(=O)NCCOCCOCCOCCOCCNC(=O)COc1c(Br)cc(CC3C(=O)Nc4ccc(Br)cc43)cc1Br)c1nnc(C)n1-2 (stereo not drawn) [Compound 16] yielded a viability at 72 h, 10 nmol/L [1, 6] of 95.2%, a viability at 72 h, 100 nmol/L [1, 6] of 99.6% and a viability at 72 h, 300 nmol/L [1, 6] of 96.7%. For the same compound, the viability at 72 h, 1000 nmol/L [1, 6] was 82.7%, the viability at 72 h, 3000 nmol/L [1, 6] was 60% and the viability at 72 h, 10000 nmol/L [1, 6] was 8.63%. It also gave a viability at 72 h, 0.01 µM [1, 7] of 97.2%, a viability at 72 h, 0.03 µM ([1]; 72 h, 30 nM, Fig. 4k, read-out: Relative cell viability (%)) of 102% and a viability at 72 h, 0.1 µM [1, 7] of 92.6%. It also gave a viability at 72 h, 1 µM [1, 7] of 49.7%, a viability at 72 h, 3 µM [1, 7] of 16.6% and a GI50 [2] of 1000 to 1200 nM. For the same compound, the “Relative cell viability (%)” value ([2]; 10 nM, 0.01 µM) was 112.636% and 96.9495%, the “Relative cell viability (%)” value ([2]; 30 nM, 0.03 µM) was 115.001% and 96.0444% and the “Relative cell viability (%)” value ([2]; 100 nM, 0.1 µM) was 99.9011% and 81.8303%. For the same compound, the “Relative cell viability (%)” value ([2]; 300 nM, 0.3 µM) was 80.1727% and 96.1576% and 71.4791%, the “Relative cell viability (%)” value ([2]; 1000 nM, 1 µM) was 60.9647% and 43.3109% and the “Relative cell viability (%)” value ([2]; 3000 nM, 3 µM) was 18.6473% and 16.4385%. The “Relative cell viability (%)” value ([2]; 10000 nM, 10 µM) was -0.2254% and 0.02364% and 0.3624%, the “Relative cell viability (%)” value ([2]; 30000 nM, 30 µM) was -0.3131% and -0.2888% and -0.253% and the “Cell viability (%) relative to DMSO” value ([2]; concentration 10 nmol/L) was 99.6715% and 109.515%. For the same compound, the “Cell viability (%) relative to DMSO” value ([2]; concentration 30 nmol/L) was 97.9616% and 103.22% and 119.751%, the “Cell viability (%) relative to DMSO” value ([2]; concentration 100 nmol/L) was 100.592% and 111.273% and the “Cell viability (%) relative to DMSO” value ([2]; concentration 300 nmol/L) was 96.8221% and 108.638%. The “Cell viability (%) relative to DMSO” value ([2]; concentration 1000 nmol/L) was 85.5266% and 95.8957%, the “Cell viability (%) relative to DMSO” value ([2]; concentration 3000 nmol/L) was 59.9059% and 72.5452% and the “Cell viability (%) relative to DMSO” value ([2]; concentration 10000 nmol/L) was 8.512% and 16.0463%. For the same compound, the “Cell viability (%) relative to DMSO” value ([2]; concentration 30000 nmol/L) was -0.0717% and -0.2673% and -0.08298%, the “BRD2 degradation in KBM7 cells” value [3] was “did not induce degradation of BRD2” and the “BRD2 depletion by In-Cell Western” value [4] was “did not induce in cellulo degradation”. The “Caspase 3/7 activity (fold change)” value ([5]; 0.3 μM) was 1.231 fold change and 1.654 fold change and 1.232 fold change and the “Caspase 3/7 activity (fold change)” value ([5]; 1 μM) was 1.2 fold change and 1.194 fold change and 1.182 fold change.

Cc1sc2c(c1C)C(c1ccc(Cl)cc1)=NC(CC(=O)NCCOCCOCCOCCOc1c(Br)cc(CC3C(=O)Nc4ccc(Br)cc43)cc1Br)c1nnc(C)n1-2 (stereo not drawn) [Compound 17] showed a viability at 72 h, 10 nmol/L [1, 6] of 104%, a viability at 72 h, 30 nmol/L ([1]; concentration 30 nmol/L, individual replicates, Supplementary Fig. 7g, read-out: Cell viability (%) relative to DMSO) of 101% and a viability at 72 h, 100 nmol/L [1, 6] of 100%. For the same compound, the viability at 72 h, 300 nmol/L [1, 6] was 92.8%, the viability at 72 h, 1000 nmol/L [1, 6] was 80.1% and the viability at 72 h, 3000 nmol/L [1, 6] was 58.9%. The viability at 72 h, 10000 nmol/L [1, 6] was 38.2%, the viability at 72 h, 0.01 µM [1, 7] was 120% and the viability at 72 h, 0.1 µM [1, 7] was 104%. The viability at 72 h, 1 µM [1, 7] was 54.7%, the viability at 72 h, 3 µM [1, 7] was 23% and the GI50 [2] was 1000 to 1200 nM. The “Relative cell viability (%)” value ([2]; 10 nM, 0.01 µM) was 113.554% and 104.708%, the “Relative cell viability (%)” value ([2]; 30 nM, 0.03 µM) was 107.162% and 119.822% and 97.6289% and the “Relative cell viability (%)” value ([2]; 100 nM, 0.1 µM) was 93.2408% and 94.967%. The “Relative cell viability (%)” value ([2]; 300 nM, 0.3 µM) was 80.2996% and 90.3554% and 69.1714%, the “Relative cell viability (%)” value ([2]; 1000 nM, 1 µM) was 51.0815% and 43.0724% and the “Relative cell viability (%)” value ([2]; 3000 nM, 3 µM) was 24.9133% and 20.9046%. The “Relative cell viability (%)” value ([2]; 10000 nM, 10 µM) was -0.06982% and 0.1224% and 1.03%, the “Relative cell viability (%)” value ([2]; 30000 nM, 30 µM) was -0.1785% and -0.1531% and -0.21% and the “Cell viability (%) relative to DMSO” value ([2]; concentration 10 nmol/L) was 97.5079% and 115.29%. For the same compound, the “Cell viability (%) relative to DMSO” value ([2]; concentration 30 nmol/L) was 100.694% and 103.862%, the “Cell viability (%) relative to DMSO” value ([2]; concentration 100 nmol/L) was 98.8981% and 102.192% and the “Cell viability (%) relative to DMSO” value ([2]; concentration 300 nmol/L) was 95.2575% and 90.332%. For the same compound, the “Cell viability (%) relative to DMSO” value ([2]; concentration 1000 nmol/L) was 81.9098% and 92.9141%, the “Cell viability (%) relative to DMSO” value ([2]; concentration 3000 nmol/L) was 61.001% and 70.9093% and the “Cell viability (%) relative to DMSO” value ([2]; concentration 10000 nmol/L) was 25.3619% and 36.1626%. For the same compound, the “Cell viability (%) relative to DMSO” value ([2]; concentration 30000 nmol/L) was 28.6334% and 13.2236% and 16.0233%, the “BRD2 degradation in KBM7 cells” value [3] was “did not induce degradation of BRD2” and the “Caspase 3/7 activity (fold change)” value ([5]; 0.3 μM) was 1.197 fold change and 0.791 fold change and 0.9918 fold change. For the same compound, the “Caspase 3/7 activity (fold change)” value ([5]; 1 μM) was 1.23 fold change and 0.8887 fold change and 1.1561 fold change.
